Data published in ChEMBL document CHEMBL3739397, “Identification of an indoletriazoleamino acid conjugate as a highly effective antifungal agent” (2015).
Converted amounts (≈) assume the structure as drawn. The source made the active and inactive calls. The rule behind the calls is not given here.

Key:
[1] = tested on: Candida albicans; experiment: Antifungal activity against Candida albicans BWP17 at MIC80 for 3 days by spot assay; type: functional, organism-based
[2] = tested on: Candida albicans; experiment: Antifungal activity against Candida albicans BWP17 at 1/10th of MIC80 for 3 days by spot assay; type: functional, organism-based
[3] = tested on: Candida albicans; experiment: Antifungal activity against Candida albicans BWP17 assessed as cell wall damage measured as cell clumping at MIC80 by confocal microscopic analysis; type: functional, organism-based
[4] = tested on: Candida albicans; experiment: Antifungal activity against Candida albicans BWP17 assessed as necrotic cells at […] incubated for overnight by PI staining based microscopic analysis; type: functional, organism-based
[5] = tested on: Candida albicans; experiment: Antifungal activity against Candida albicans BWP17 assessed as zone of inhibition at 0.5 mg/ml for 48 hrs by disk diffusion method (reference value: 0.6 cm); type: functional
[6] = tested on: Candida albicans; experiment: Antifungal activity against Candida albicans BWP17 assessed as zone of inhibition at 1 mg/ml for 48 hrs by disk diffusion method (reference value: 0.6 cm); type: functional
[7] = tested on: Candida albicans; experiment: Antifungal activity against Candida albicans BWP17 assessed as zone of inhibition at 2 mg/ml for 48 hrs by disk diffusion method (reference value: 0.6 cm); type: functional
[8] = tested on: Candida albicans; experiment: Antifungal activity against Candida albicans BWP17 after 48 hrs by broth dilution method; type: functional; settings: BWP17, 48 h
[9] = tested on: Candida albicans; experiment: Antifungal activity against Candida albicans BWP17 at 1.25 mg/ml after 48 hrs by broth dilution method; type: functional; settings: BWP17, BWP17, 48 h
[10] = tested on: Candida albicans; experiment: Antifungal activity against Candida albicans BWP17 at 0.6 mg/ml after 48 hrs by broth dilution method; type: functional; settings: BWP17, BWP17, 48 h
[11] = tested on: Candida albicans; experiment: Antifungal activity against Candida albicans BWP17 at 0.3 mg/ml after 48 hrs by broth dilution method; type: functional; settings: BWP17, BWP17, 48 h
[12] = tested on: Candida albicans; experiment: Antifungal activity against Candida albicans BWP17 at 0.16 mg/ml after 48 hrs by broth dilution method; type: functional; settings: BWP17, BWP17, 48 h
[13] = tested on: Candida albicans; experiment: Antifungal activity against Candida albicans BWP17 at 0.08 mg/ml after 48 hrs by broth dilution method; type: functional; settings: BWP17, BWP17, 48 h
[14] = tested on: Candida albicans; experiment: Antifungal activity against Candida albicans BWP17 at 0.04 mg/ml after 48 hrs by broth dilution method; type: functional; settings: BWP17, BWP17, 48 h
[15] = tested on: Candida albicans; experiment: Antifungal activity against Candida albicans BWP17 assessed as mild growth inhibition at 400 ug/ml after 24 hrs by spot assay; type: functional, organism-based
[16] = tested on: Candida albicans; experiment: Antifungal activity against Candida albicans BWP17 at 400 ug/ml after 48 hrs by spot assay; type: functional, organism-based
[17] = tested on: Candida albicans; experiment: Antifungal activity against Candida albicans BWP17 at > MIC80 compound added to secondary culture for 3 days by spot assay; type: functional, organism-based
[18] = tested on: Candida albicans; experiment: Antifungal activity against Candida albicans BWP17 at MIC80 for 3 days by spot assay in presence of ketoconazole; type: functional, organism-based
[19] = tested on: Candida albicans; experiment: Antifungal activity against Candida albicans BWP17 at 1/10th of MIC80 for 3 days by spot assay in presence of ketoconazole; type: functional, organism-based
[20] = tested on: Candida albicans; experiment: Antifungal activity against Candida albicans BWP17 at MIC80 after 2 days by spot assay in presence of terbinafine; type: functional, organism-based
[21] = tested on: Candida albicans; experiment: Antifungal activity against Candida albicans BWP17 at MIC80 after 3 days by spot assay in presence of terbinafine; type: functional, organism-based
[22] = tested on: Candida albicans; experiment: Antifungal activity against Candida albicans BWP17 at 62.5 ug/ml for 3 days by spot assay in presence of terbinafine; type: functional, organism-based
[23] = tested on: Candida albicans; experiment: Antifungal activity against Candida albicans BWP17 assessed as cell wall damage measured as cell clumping at MIC80 by confocal microscopic analysis in presence of ketoconazole; type: functional, organism-based
[24] = tested on: Candida albicans; experiment: Antifungal activity against Candida albicans BWP17 assessed as increase in chitin level at MIC80 by CFW staining based microscopic analysis in presence of ketoconazole; type: functional, organism-based
[25] = tested on: Candida albicans; experiment: Antifungal activity against Candida albicans BWP17 assessed as increase in chitin level at MIC80 by CFW staining based microscopic analysis; type: functional, organism-based
[26] = tested on: Candida albicans; experiment: Antifungal activity against Candida albicans BWP17 assessed as increase in chitin level at 1/10th of MIC80 by spot assay in presence of CFW; type: functional, organism-based
[27] = tested on: Candida albicans; experiment: Antifungal activity against Candida albicans BWP17 assessed as cell shrinkage and deposition of cellular content on cell surface at 312.5 ug/ml by scanning electron microscopic analysis; type: functional, organism-based
[28] = tested on: Candida albicans; experiment: Antifungal activity against Candida albicans BWP17 assessed as cell shrinkage and deposition of cellular content on cell surface at < MIC80 by scanning electron microscopic analysis; type: functional, organism-based
[29] = tested on: Candida albicans; experiment: Antifungal activity against Candida albicans BWP17 assessed as cell shrinkage and deposition of cellular content on cell surface at 312.5 ug/ml by scanning electron microscopic analysis in presence of ketocanozole; type: functional, organism-based
[30] = tested on: Candida albicans; experiment: Antifungal activity against Candida albicans BWP17 assessed as necrotic cells incubated for overnight by PI staining based microscopic analysis; type: functional, organism-based
[31] = tested on: Candida albicans; experiment: Antifungal activity against Candida albicans BWP17 assessed as necrotic cells at 312.5 ug/ml incubated for overnight by PI staining based microscopic analysis in presence of ketoconazole; type: functional, organism-based

`CN(C/C=C/C#CC(C)(C)C)Cc1cccc2ccccc12` was tested, and the Activity [1] was “Active”.

With `CC(=O)N1CCN(c2ccc(OCC3COC(Cn4ccnc4)(c4ccc(Cl)cc4Cl)O3)cc2)CC1` (stereo not given) the Activity [1] was “Active”, the Activity [2] was “Active” and the Activity [3] was “Active”. For the same compound, the Activity [4] was “Active”.

In the case of `O=C(O)CC[C@H](NC(=O)C(=O)c1cn(Cc2cn(-c3ccccc3)nn2)c2ccccc12)C(=O)O`, the Activity [5] is reported as 0.8 cm, the Activity [6] is reported as 1.2 cm and the Activity [7] is reported as 2.5 cm. For the same compound, the MIC80 [8] was 312 µg/mL (≈ 657 µM), the inhibition at 1250 µg/mL [9] was 84% and the inhibition at 600 µg/mL [10] was 84%. The inhibition at 300 µg/mL [11] was 81%, the inhibition at 160 µg/mL [12] was 33% and the inhibition at 80 µg/mL [13] was 18%. For the same compound, the inhibition at 40 µg/mL [14] was 6%, the Activity [15] was “Active” and the Activity [16] was “inactive”. For the same compound, the Activity [17] was “Active”, the Activity [1] was “Active” and the Activity [18] was “Active”. The Activity [2] was “Active”, the Activity [19] was “Active” and the Activity [20] was “Active”. The Activity [21] was “Active”, the Activity [22] was “inactive” and the Activity [3] was “Active”. For the same compound, the Activity [23] was “Active”, the Activity [24] was “Active” and the Activity [25] was “Active”. The Activity [26] was “Active”, the Activity [27] was “Active” and the Activity [28] was “Active”. The Activity [29] was “Active”, the Activity [30] was “Active” and the Activity [31] was “Active”.
